Reference: US6660496B1 (priority 1993, dated 2003)
“Also recorded” adds a separate entry of the source.

Legend:
kappa3 receptors = settings: cited from earlier work
kappa3 opioid receptor = assay: Effect of antisense treatment on kappa3 analgesic activity (tailflick assay); format: in vivo; settings: mice, 5 μg oligodeoxynucleotide intracerebroventricular on days 1, 3 and 5, quantal tailflick 15 min after drug; for Effect on analgesic response to NalBzoH: NalBzoH 15 μg on day 6; for Effect on analgesic response to morphine: morphine 1 μg on day 6

Question: With `Oc1ccc2c3c1O[C@H]1c4[nH]c5c(c4C[C@@]4(O)[C@@H](C2)N(CC2CC2)CC[C@]314)C[C@@]1(O)[C@H]2Cc3ccc(O)c4c3[C@@]1(CCN2CC1CC1)[C@H]5O4` [nor-binaltorphimine] as the compound, how does the “Binding to kappa3 receptors” value (kappa3 receptors) read?
Answer: do not bind U50,488H or nor-binaltorphimine very well

Question: With “antisense: anti-sense to the kappa3 clone (5′-GGGCTGTGCAGAAGCGCAGA-3′)(SEQ ID NO:3) (DNA, backbone and methylation of C not given here)” as the compound, how does the “Effect on analgesic response to NalBzoH” value (kappa3 opioid receptor) read?
Answer: markedly lowered; also recorded: markedly reduced

Question: What about the “Effect on analgesic response to morphine” value (kappa3 opioid receptor) of the same compound?
Answer: without interfering

Question: What about the “Effect on analgesic response to morphine” value (kappa3 opioid receptor; listed as anti-sense) of the same compound?
Answer: unaffected

Question: For “mismatched antisense: mismatched antisense in which two base pairs had been switched (5′-GGGTCGTGCAGAGACGCAGA-3′) (SEQ ID NO:5) (DNA, backbone and methylation of C not given here)”, which “Effect on analgesic response to NalBzoH” value (kappa3 opioid receptor) is on record?
Answer: unaffected

Question: What about the “Effect on analgesic response to NalBzoH” value (kappa3 opioid receptor; listed as mismatched antisense probe) of the same compound?
Answer: lack of activity

Question: For “sense strand: complementary sense strand to the antisense oligodeoxynucleotide (5′-CCCGACACGTCTTCGC-GTCT-3′) (SEQ ID NO:4) (sense CCCGACACGTCTTCGCGTCT; DNA, backbone and methylation of C not given here)”, which “Effect on analgesic response to NalBzoH” value (kappa3 opioid receptor) is on record?
Answer: lack of activity

Question: And the “Effect on analgesic response to NalBzoH” value (kappa3 opioid receptor; listed as sense)?
Answer: unaffected
